Where two headings read alike, the source gives them in different places.
What was measured:
Assay in all cases: Glasshouse assay for herbicidal activity (pre- and post-emergence), percentage phytotoxicity
Assay type in all cases: in vivo
Lolium perenne (LOLPE) = details: Lolium perenne, rate 250 g/ha
Summary of the method: (§1)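 Visual phytotoxicity score, 0% = undamaged to 100% = total kill, read 20 days after treatment for PRE and 15 days for POST. Pots of standard soil; treatment at day 1 (PRE) or roughly day 12 (POST). Glasshouse: 16 h photoperiod, 65% RH, 24/18 or 20/16 °C by climate type.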

Avena fatua (AVEFA) = details: Avena fatua, rate 250 g/ha
Summary of the method: as §1

[1] = test system: Alopecurus myosuroides (ALOMY); details: Alopecurus myosuroides, rate 250 g/ha
Summary of the method: as §1

[2] = test system: Echinochloa crus-galli (ECHCG); details: Echinochloa crus-galli, rate 250 g/ha
Summary of the method: as §1

[3] = post-emergence, 360 h, POST-emergence, visual score 15 DAA (100%=total damage, 0%=no damage), read-out: Post-emergence herbicidal activity (percentage phytotoxicity) LOLPE POST
[4] = pre-emergence, 480 h, PRE-emergence, visual score 20 DAA (100%=total damage, 0%=no damage), read-out: Pre-emergence herbicidal activity (percentage phytotoxicity) LOLPE PRE
[5] = post-emergence, 360 h, POST-emergence, visual score 15 DAA (100%=total damage, 0%=no damage), read-out: Post-emergence herbicidal activity (percentage phytotoxicity) AVEFA POST
[6] = pre-emergence, 480 h, PRE-emergence, visual score 20 DAA (100%=total damage, 0%=no damage), read-out: Pre-emergence herbicidal activity (percentage phytotoxicity) AVEFA PRE
[7] = post-emergence, 360 h, POST-emergence, visual score 15 DAA (100%=total damage, 0%=no damage), read-out: Post-emergence herbicidal activity (percentage phytotoxicity) ALOMY POST
[8] = pre-emergence, 480 h, PRE-emergence, visual score 20 DAA (100%=total damage, 0%=no damage), read-out: Pre-emergence herbicidal activity (percentage phytotoxicity) ALOMY PRE
[9] = post-emergence, 360 h, POST-emergence, visual score 15 DAA (100%=total damage, 0%=no damage), read-out: Post-emergence herbicidal activity (percentage phytotoxicity) ECHCG POST
[10] = pre-emergence, 480 h, PRE-emergence, visual score 20 DAA (100%=total damage, 0%=no damage), read-out: Pre-emergence herbicidal activity (percentage phytotoxicity) ECHCG PRE

Row | SMILES | pest or weed control at 250 g/ha (Lolium perenne (LOLPE); [3]) | pest or weed control at 250 g/ha (Lolium perenne (LOLPE); [4]) | pest or weed control at 250 g/ha (Avena fatua (AVEFA); [5]) | pest or weed control at 250 g/ha (Avena fatua (AVEFA); [6]) | pest or weed control at 250 g/ha [1, 7] | pest or weed control at 250 g/ha [1, 8] | pest or weed control at 250 g/ha [2, 9] | pest or weed control at 250 g/ha [2, 10]
1 | C/C=C/c1cc(C)c(C2C(=O)CC(CC(=O)NCc3cccc(Cl)c3)C2=O)c(CC)c1 (stereo not drawn) [Compound B187] | 90% | 80% | 70% | 10% | 70% | 70% | 100% | 80%
2 | C/C=C/c1cc(C)c(C2C(=O)CC(CC(=O)NCc3cccc(F)c3)C2=O)c(CC)c1 (stereo not drawn) [Compound B188] | 90% | 80% | 100% | 40% | 80% | 60% | 100% | 80%
3 | C/C=C/c1cc(C)c(C2C(=O)CC(CC(=O)NCc3ccc(OC)cc3)C2=O)c(CC)c1 (stereo not drawn) [Compound B189] | 90% | 80% | 90% | 40% | 90% | 60% | 100% | 80%
4 | C/C=C/c1cc(C)c(C2C(=O)CC(CC(=O)NCc3ccccc3)C2=O)c(CC)c1 (stereo not drawn) [Compound B190] | 80% | 70% | 90% | 40% | 70% | 60% | 100% | 80%
5 | C/C=C/c1cc(C)c(C2C(=O)CC(CC(=O)NCc3ccc(C#N)cc3)C2=O)c(CC)c1 (stereo not drawn) [Compound B191] | 90% | 70% | 90% | 40% | 50% | 60% | 100% | 80%
6 | C/C=C/c1cc(C)c(C2C(=O)CC(CC(=O)NC(C)C)C2=O)c(CC)c1 (stereo not drawn) [Compound B192] | 100% | 100% | 100% | 90% | 100% | 100% | 100% | 100%
7 | C=CCNC(=O)CC1CC(=O)C(c2c(C)cc(/C=C/C)cc2CC)C1=O (stereo not drawn) [Compound B193] | 100% | 100% | 100% | 90% | 100% | 100% | 100% | 100%
8 | C/C=C/c1cc(C)c(C2C(=O)CC(CC(=O)N(C)CC)C2=O)c(CC)c1 (stereo not drawn) [Compound B194] | 100% | 100% | 100% | 80% | 100% | 100% | 100% | 90%
9 | C#CCN(C)C(=O)CC1CC(=O)C(c2c(C)cc(/C=C/C)cc2CC)C1=O (stereo not drawn) [Compound B195] | 100% | 100% | 100% | 80% | 100% | 90% | 100% | 100%
10 | C/C=C/c1cc(C)c(C2C(=O)CC(CC(=O)NCC3CC3)C2=O)c(CC)c1 (stereo not drawn) [Compound B196] | 100% | 100% | 100% | 80% | 100% | 100% | 100% | 100%
11 | Cc1cc(-c2ncc(Cl)cc2F)cc(C)c1C1C(=O)CC(CC(=O)NCC2CC2(F)F)C1=O (stereo not drawn) [Compound B197] | 100% | 90% | 100% | 90% | 100% | 100% | 100% | 100%
12 | Cc1cc(Br)cc(C)c1C1C(=O)CC(CC(=O)NCC2CC2(F)F)C1=O (stereo not drawn) [Compound B198] | 100% | 70% | 100% | 60% | 100% | 90% | 100% | 80%
13 | Cc1cc(-c2ncc(F)cc2F)cc(C)c1C1C(=O)CC(CC(=O)NCc2ccc(C#N)cc2)C1=O (stereo not drawn) [Compound B199] | 90% | 70% | 100% | 60% | 100% | 80% | 100% | 50%
14 | C=C(C)CNC(=O)CC1CC(=O)C(c2c(C)cc(-c3ncc(F)cc3F)cc2C)C1=O (stereo not drawn) [Compound B200] | 100% | 100% | 100% | 90% | 100% | 100% | 100% | 100%
15 | CCNC(=O)CC1CC(=O)C(c2c(C)cc(-c3ncc(F)cc3F)cc2C)C1=O (stereo not drawn) [Compound B201] | 100% | 100% | 100% | 100% | 100% | 100% | 100% | 100%
16 | Cc1cc(-c2ncc(F)cc2F)cc(C)c1C1C(=O)CC(CC(=O)NCc2ccc(C#N)cn2)C1=O (stereo not drawn) [Compound B202] | 70% | 60% | 80% | 70% | 90% | 80% | 90% | 70%
17 | Cc1cc(-c2ncc(F)cc2F)cc(C)c1C1C(=O)CC(CC(=O)NC(C)C)C1=O (stereo not drawn) [Compound B203] | 100% | 100% | 100% | 100% | 100% | 100% | 100% | 100%
18 | Cc1cc(OCC(F)(F)F)cc(C)c1C1C(=O)CC(CC(=O)NCc2cccc(Cl)c2)C1=O (stereo not drawn) [Compound B204] | 90% | 90% | 100% | 80% | 100% | 90% | 100% | 90%
19 | Cc1cc(OCC(F)(F)F)cc(C)c1C1C(=O)CC(CC(=O)NCc2cccc(F)c2)C1=O (stereo not drawn) [Compound B205] | 90% | 90% | 90% | 80% | 100% | 100% | 90% | 90%
20 | COc1ccc(CNC(=O)CC2CC(=O)C(c3c(C)cc(OCC(F)(F)F)cc3C)C2=O)cc1 (stereo not drawn) [Compound B206] | 90% | 80% | 90% | 70% | 90% | 80% | 90% | 90%
21 | Cc1cc(OCC(F)(F)F)cc(C)c1C1C(=O)CC(CC(=O)NCc2ccc(C#N)cc2)C1=O (stereo not drawn) [Compound B207] | 60% | 10% | 50% | 0% | 80% | 40% | 90% | 40%

Source: patent US10206394B2, “Herbicidal compounds” (Syngenta Participations AG, priority 2014, dated 2019)
